These results are taken from ChEMBL document CHEMBL1926545, “The 2,11-cyclized cembranoids: cladiellins, asbestinins, and briarellins (period 1998-2010)” (J Nat Prod, 2011).

Assay [1] deals with MCF7. Kind of assay: Cytotoxicity against human MCF7 cells. It is filed as functional, cell-based.
The test system of assay [2] is Ca9-22. Kind of assay: Cytotoxicity against human Ca9-22 cells. It is filed as functional, cell-based.
A short description of assay [3]: Cytotoxicity against human Hep3B cells. It is filed as functional, cell-based, Hep 3B2.
Assay [4] relates to MDA-MB-231. Kind of assay: Cytotoxicity against human MDA-MB-231 cells. Type of assay: functional, cell-based.
For assay [5], the system named is A549. The assay is described as follows: Cytotoxicity against human A549 cells. It is filed as functional, cell-based.
The test system of assay [6] is HepG2. Kind of assay: Cytotoxicity against human HepG2 cells. Type of assay: functional, cell-based.
Assay [7] has as its system RAW264.7. The assay is described as follows: Antiinflammatory activity in […] RAW264.7 cells assessed as LPS-induced iNOS expression at 10 uM. Type of assay: functional.
The test system of assay [8] is RAW264.7. The assay is described as follows: Antiinflammatory activity in […] RAW264.7 cells assessed as LPS-induced COX-2 expression at 10 uM. Type of assay: functional.
Assay [9] is described as follows: Cytostatic activity against human NSCLC-N6 cells. Type of assay: functional, cell-based.
In assay [10] the test system is L1210. Kind of assay: Cytotoxicity against mouse L1210 cells. Type of assay: functional, cell-based.
Setting [11] is: Homo sapiens, MCF7, read-out: IC50.
Where [12] appears, read: Homo sapiens, Ca9-22, read-out: IC50.
[13] abbreviates: Homo sapiens, Hep3B, read-out: IC50.
Where [14] appears, read: Homo sapiens, MDA-MB-231, read-out: IC50.
The mark [15] stands for this setting: Homo sapiens, A549, read-out: IC50.
Where [16] appears, read: Homo sapiens, HepG2, read-out: IC50.

The source made the active and inactive calls. The calls are words filed in the database; no cut-off is given here.

In general, IC50 refers to the point on the concentration scale where inhibition reaches its midpoint. Consider `CCCC(=O)O[C@]1(C)CC[C@H](O)[C@@H](C)C[C@H]2O[C@@H]1[C@@H]1[C@@H](C(C)C)[C@H](O)C[C@@](C)(OC(C)=O)[C@@H]12` [KLYSIMPLEXIN A], for which the IC50 result in assay [1] (mcf7), in assay [2] (ca9-22), in assay [3] (hep 3b2), in assay [4] (mda-mb-231), in [5] (a549) and in assay [6] (hepg2) was “Not Active” each time.
For `C=C1C[C@H]2O[C@H]([C@@H]3[C@@H](C(C)C)[C@H](O)C[C@@](C)(OC(C)=O)[C@@H]32)[C@](C)(OC(=O)CCC)CCC1=O` [KLYSIMPLEXIN B], the IC50 in assay [1] (setting [11]) turned out to be 6.5 µM; in assay [2] (setting [12]), 3.9 µM; in assay [3] (setting [13]) it was 7.8 µM; in assay [4] (setting [14]) it was 15 µM; in assay [5] (setting [15]), 4.3 µM; in assay [6] (setting [16]), 6.4 µM.
For `C=C1C[C@H]2O[C@H]([C@@H]3[C@@H](C(C)C)[C@H](O)C[C@@](C)(OC(C)=O)[C@@H]32)[C@](C)(OC(=O)CCC)CC[C@@H]1O` [KLYSIMPLEXIN C], the IC50 entry in [1] (mcf7), in assay [2] (ca9-22), in assay [3] (hep 3b2), in assay [4] (mda-mb-231), in assay [5] (a549) and in [6] (hepg2) was “Not Active” each time.
With `C=C1C[C@H]2O[C@H]([C@@H]3[C@@H](C(C)C)[C@H](O)C[C@@](C)(OC(C)=O)[C@@H]32)[C@](C)(OC(=O)CCC)CC[C@@H]1OO` [KLYSIMPLEXIN D], the IC50 result in assay [1] (mcf7), in assay [2] (ca9-22), in assay [3] (hep 3b2), in [4] (mda-mb-231), in assay [5] (a549) and in [6] (hepg2) was “Not Active” in each case.
`C=C1C[C@H]2O[C@H]([C@@H]3[C@@H](C(C)C)[C@H](O)C[C@@](C)(OC(C)=O)[C@@H]32)[C@](C)(OC(C)=O)CC[C@@H]1O` [KLYSIMPLEXIN E]: the IC50 entry in assay [1] (mcf7), in assay [2] (ca9-22), in [3] (hep 3b2), in assay [4] (mda-mb-231), in [5] (a549) and in assay [6] (hepg2) was “Not Active” each time.
As for `CCCC(=O)O[C@]1(C)CC[C@H](O)[C@@](C)(O)C[C@H]2O[C@@H]1[C@@H]1[C@@H](C(C)C)[C@H](O)C[C@@](C)(OC(C)=O)[C@@H]12` [KLYSIMPLEXIN F], the IC50 entry in [1] (mcf7), in assay [2] (ca9-22), in assay [3] (hep 3b2), in assay [4] (mda-mb-231), in assay [5] (a549) and in assay [6] (hepg2) was “Not Active” in each case.
`CC(=O)O[C@]1(C)CC[C@H](C(C)C)[C@@H]2[C@H]1[C@H]1C[C@](C)(O)[C@@H](O)CC[C@@](C)(OC(C)=O)[C@@H]2O1` [KLYSIMPLEXIN G]: the IC50 entry in [1] (mcf7), in [2] (ca9-22), in assay [3] (hep 3b2), in assay [4] (mda-mb-231), in assay [5] (a549) and in assay [6] (hepg2) was “Not Active” throughout.
For the compound `CCCC(=O)O[C@H]1[C@H](C(C)C)[C@@H]2[C@@H]([C@H]3/C=C(/C)[C@@H](O)CC[C@@](C)(OC(=O)CCC)[C@@H]2O3)[C@](C)(O)[C@@H]1OC(C)=O` [KLYSIMPLEXIN H], the IC50 in [1] (setting [11]) came to 10 µM; in assay [2] (setting [12]), 11 µM; in [3] (setting [13]), 13 µM; in assay [4] (setting [14]), 8 µM; in assay [5] (setting [15]), 5.1 µM; in assay [6] (setting [16]) it was 10 µM.
With `CCCC(=O)O[C@]1(C)CCC[C@@](C)([S+](C)[O-])C[C@H]2O[C@@H]1[C@H]1[C@@H]2[C@](C)(OC(C)=O)CC[C@@H]1C(C)C` (stereo partly drawn) [KLYSIMPLEXIN SULFOXIDE A], the Activity in assay [7] was found to be 8.8%. In [8], the outcome was inactive.
For `CCCC(=O)O[C@H]1[C@H](C(C)C)[C@@H]2[C@@H]([C@H]3C[C@](C)([S+](C)[O-])CCC[C@@](C)(OC(=O)CCC)[C@@H]2O3)[C@](C)(O)[C@@H]1OC(C)=O` (stereo partly drawn) [KLYSIMPLEXIN SULFOXIDE B], the Activity in [7] is on record as 18%. Also, in [8], the result was inactive.
Turning to `C=C1C[C@H]2O[C@H]([C@@H]3[C@@H](C(C)C)[C@H](OC(=O)CC[S+](C)[O-])[C@@H](OC(C)=O)[C@@](C)(O)[C@@H]32)[C@](C)(OC(=O)CCC)CC[C@@H]1O` (stereo partly drawn) [KLYSIMPLEXIN SULFOXIDE C], the Activity in assay [7] was determined as 11%; in assay [8], 7.2%.
On to `C=C1C[C@@H]2O[C@@H]([C@@H]3[C@H]2[C@@](C)(OC(C)=O)[C@H](OC(C)=O)C[C@H]3C(C)C)[C@@](C)(OC(C)=O)CC[C@H]1O` [LABIATIN C], for which the midpoint of inhibition in assay [9], the IC50, lay at 16 µM.
The compound `C=C1C[C@H]2O[C@H]([C@H]3[C@@H]2[C@](C)(OC(C)=O)[C@@H](OC(C)=O)C[C@@H]3C(C)C)[C@](C)(OC(C)=O)CC[C@@H]1O` [LABIATIN E] showed an IC50 in assay [9] of 73 µM.
For `C=C1CC[C@H](C(C)C)[C@@H]2[C@H]1[C@H]1C[C@](C)(O)[C@@H](O)CC[C@@](C)(O)[C@@H]2O1` [SCLEROPHYTIN A], the IC50 in [10] stood at 0.003 µM; in assay [5] (setting [15]) it was 57 µM.
